Reference: patent publication US20240245694A1, “Tricyclic Compounds and their Uses” (Novartis AG, priority 2022, published 2024)

Tests used:
[1] = system: SW48 cells; assay: Proliferation assay SW48 (CellTiterGlo, 96 hours); type: cell-based; conditions: Homo sapiens
Description: (§1) The colon carcinoma cell lines SW48 (RRID: CVCL_1724), HCT 116 (RRID: CVCL_0291) and SNU-407 (RRID: CVCL_5058) were obtained from ATCC. The WRN-knockdown insensitive colon carcinoma cell line DLD-1 (RRID: CVCL_0248) was obtained from the Korean Cell Line Bank (KCLB), and used to generate a derivative in which the endogenous WRN gene copies were knocked out by CRISPR-mediated editing using standard CRISPR methods. The resulting cell line, DLD1-WRN-KO, was used to assess potential off-target compound effects.
(§2) SW48, SNU-407 and DLD1-WRN-KO cells were cultured in growth medium composed of RPMI-1640 (Amimed Cat #1-41F22-1), 2 mM L-Glutamine (Amimed Cat #5-10K50), 10 mM HEPES (Gibco Cat #15630-056), 1 mM sodium pyruvate (Amimed Cat #5-60F00-H), 1× Penicillin-Streptomycin (Amimed Cat #4-01F00-H) and 10% fetal calf serum (Amimed Cat #2-01F30-G, Lot #LB11566P). HCT 116 cells were cultured in growth medium composed of McCoys 5A (Amimed catalog #1-18F01-1), 2 mM L-Glutamine (Amimed Cat #5-10K50), 1× Penicillin-Streptomycin (Amimed Cat #4-01F00-H) and 10% fetal calf serum (Amimed Cat #2-01F30-G, Lot #LB11566P). All cells were maintained at 37° C. in a humidified 5% CO2 incubator.
(§3) Following filtration through a Steriflip-NY 20 μm filter (Millipore Cat #SCNY00020), trypsinized cells were seeded in 100 microliters growth medium at 2′000 (SW48) or 1′500 (SNU-407, DLD1-WRN-KO, HCT 116) cells/well into white, clear-bottom 96-well plates (Costar Cat #3903). Three replicate plates were prepared for each compound treatment condition. In addition, one plate (termed “day 0”) was prepared to quantify the number of viable cells at the time of compound addition. Following overnight incubation at 37° C. in a humidified 5% CO2 atmosphere, eight 3-fold serial dilutions of a given compound stock (obtained at a concentration of 10 mM in DMSO and stored at 4° C.) were dispensed directly into each of the triplicate assay plates using a HP 300D non-contact Digital Dispenser (TECAN). The final concentration of DMSO was normalized to 0.1% in all wells. 96 hours after compound addition, cellular ATP levels as a surrogate for cell viability was assessed following addition of 50 microliters CellTiterGlo (Promega Cat #G7573) reagent and luminescence quantification on a MPLEX multi-mode plate-reader (TECAN) following a 10 minute incubation at room temperature. The number of viable cells in the “day 0” plate were quantified identically on the day of compound addition.
(§4) For data analysis, the assay background signal that was determined in wells containing medium, but no cells, was subtracted from all other data points prior to further calculations. The extent of growth inhibition and potential cell kill was assessed by comparing the ATP levels (measured using CellTiterGlo, Promega) in compound-treated cells with those present at the time of compound addition. To this end, the following conditional concept was programmatically applied in HELIOS, an in-house software applying a multi-step decision tree to arrive at optimal concentration response curve fits (Gubler et al, SLAS DOI: 10.1177/2472555217752140) to calculate % growth (% G) for each compound-treated well: % G=(T−V0)/V0))*100 when T<V0, and % G=(T−V0)/(V−V0)))*100 when T>V0, where V0 is the viability level at time of compound addition, while V and T represent vehicle-control and compound-treated viability levels, respectively, at the end of the compound incubation. 100%, 0% and −100% signify absence of growth inhibition, growth stasis, and complete cell kill, respectively. Compound concentrations leading to half-maximal growth inhibition (G150) and residual cell viability at the highest tested compound concentration (Data (cmax), expressed in percent) were routinely calculated. Data analysis can also be carried out using commercially available software designed to derive IC50 values using 4-parameter fits (e.g. GraphPad Prism, XL fit). […]

[2] = system: DLD1-WRN-KO cells; assay: Proliferation assay DLD1-WRN-KO (CellTiterGlo, 96 hours), off-target effects; type: cell-based; conditions: Homo sapiens
Description: as §1, §2, §3, §4

[3] = target: WRN helicase (core helicase motif aa N517-P1238) (Homo sapiens (Human), UniProt Q14191); assay: WRN ATPase assay (ADP-Glo), DNA dependent ATP hydrolysis; type: biochemical; conditions: 3 hours pre-incubation, 300 micromolar ATP, FLAP26 ssDNA; geometric means of at least 2 determinations
WRN helicase (core helicase motif aa N517-P1238), sequence (Q14191 517-1238): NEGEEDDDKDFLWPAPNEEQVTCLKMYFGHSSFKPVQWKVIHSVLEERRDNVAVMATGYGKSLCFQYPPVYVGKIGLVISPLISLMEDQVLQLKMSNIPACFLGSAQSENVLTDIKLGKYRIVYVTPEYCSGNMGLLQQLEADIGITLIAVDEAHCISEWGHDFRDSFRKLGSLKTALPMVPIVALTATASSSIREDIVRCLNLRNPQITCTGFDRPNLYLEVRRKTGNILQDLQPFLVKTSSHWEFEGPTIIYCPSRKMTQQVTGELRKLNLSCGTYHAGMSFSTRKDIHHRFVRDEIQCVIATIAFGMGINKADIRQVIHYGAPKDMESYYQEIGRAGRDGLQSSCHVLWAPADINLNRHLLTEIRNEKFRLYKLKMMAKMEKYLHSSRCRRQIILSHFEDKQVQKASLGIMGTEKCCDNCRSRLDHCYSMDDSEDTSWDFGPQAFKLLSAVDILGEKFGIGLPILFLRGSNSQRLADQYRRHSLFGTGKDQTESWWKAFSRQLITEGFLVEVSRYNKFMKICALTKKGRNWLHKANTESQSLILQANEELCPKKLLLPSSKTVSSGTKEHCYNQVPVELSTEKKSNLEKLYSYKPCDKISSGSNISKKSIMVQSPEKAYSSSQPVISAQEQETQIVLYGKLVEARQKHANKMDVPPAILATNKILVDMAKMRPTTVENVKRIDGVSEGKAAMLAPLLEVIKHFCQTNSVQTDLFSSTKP
Description: An ATPase assay was set up to measure the DNA dependent ATP hydrolysis activity of WRN helicase. This assay was used also to assess the inhibition properties of compounds of the invention on DNA dependent WRN ATPase activity.
The core helicase motif of the WRN protein (aa N517-P1238) was produced for this assay (protein production as described above). A 45 oligonucleotide sequence called “FLAP26” as described by Brosh et al., 2009, DOI: 10.1074/jbc.M111446200 ([…]; SEQ ID NO: 2) was purchased from IDT (Integrated DNA Technologies, Leuven, Belgium) and used as single strand DNA substrate. The ADP-Glo assay kit (Promega, Madison, WI) allowing the quantification of ADP produced in ATP hydrolysis reactions was used for setting up this assay. Time course experiments were first performed in order to determine the best enzymatic assay conditions (including buffer conditions, reaction time and concentrations of protein, ATP and DNA substrates). A typical reaction consists of 10 nM WRN protein, 0.2 nM FLAP26, and 300 micromolar ATP in the following assay buffer: 30 mM Tris pH7.5, 2 mM MgCl2, 0.02% BSA, 50 mM NaCl, 0.1% pluronic F127 prepared in DNAse free water.
To evaluate the inhibition properties of compounds of the invention, serial dilutions were prepared in DMSO (10 half log dilutions from a 10 mM DMSO solution). 50 nanoliters of each concentration was pre-incubated for 3 hours in a 384 small volume assay plate (Greiner #784075) with 2.5 microliters of a 20 nM WRN helicase protein in assay buffer with 600 micromolar ATP. Control wells were included with a “high control” (no inhibition), containing DMSO with no test compound, and “low controls” (maximal inhibition), containing buffer without protein. The reaction was started by addition of 2.5 microliters of FLAP26 at 0.4 nM and incubated for 30 minutes at room temperature. The reaction was stopped with the addition of 5 microliters of the first ADP-Glo reagent and incubated for one hour to remove the excess amount of ATP. Afterwards, 10 microliters of ATP detection reagent was added and incubated for an additional hour before reading. Luminescence output was recorded using Tecan 1000 reader, with 5 minutes delay before reading. Each concentration of compound was tested in duplicates in the assay plate.
Data analysis was carried out using an in-house developed software (Novartis Helios software application, Novartis Institutes for BioMedical Research, unpublished) using the methods described by Formenko et al., 2006, DOI: 10.1016/j.cmpb.2006.01.008. Following normalization of activity values for the wells to % inhibition (% inhibition=[(high control-sample)/(high control-low control)]×100), IC50 fitting was carried out from the duplicate determinations present on each plate according to [4]. Data analysis can also be carried out using commercially available software designed to derive IC50 values using 4-parameter fits (e.g. GraphPad Prism, XL fit). The reported IC50 values are the geometrical means of at least 2 independent replicates.

Row | SMILES | GI50 [1] [µM] | GI50 [2] [µM] | IC50 [3] [µM]
1 | Cc1ncnc(C(=O)N2CCN(c3c4n(c5nc(N6CCOCC6)nn5c3=O)[C@H](C(=O)Nc3ccc(C(F)(F)F)cc3Cl)C[C@@H]4C)CC2)c1O [Example 2B, (7S,9S)—N-(2-chloro-4-(trifluoromethyl)phenyl)-6-(4-(5-hydroxy-6-methylpyrimidine-4-carbonyl)piperazin-1-yl)-7-methyl-2-morpholino-5-oxo-5,7,8,9-tetrahydropyrrolo[1,2-c][1,2,4]triazolo[1,5-a]pyrimidine-9-carboxamide] | > 10 | > 10 | 26
2 | Cc1ncnc(C(=O)N2CCN(c3c4n(c5nc(N6CCOCC6)nn5c3=O)[C@@H](C(=O)Nc3ccc(C(F)(F)F)cc3Cl)C[C@@H]4C)CC2)c1O [Example 2C, (7S,9R)—N-(2-chloro-4-(trifluoromethyl)phenyl)-6-(4-(5-hydroxy-6-methylpyrimidine-4-carbonyl)piperazin-1-yl)-7-methyl-2-morpholino-5-oxo-5,7,8,9-tetrahydropyrrolo[1,2-c][1,2,4]triazolo[1,5-a]pyrimidine-9-carboxamide] | 1 | > 10 | 0.1
3 | Cc1ncnc(C(=O)N2CCN(c3c4n(c5nc(N6CCOCC6)nn5c3=O)[C@H](C(=O)Nc3ccc(C(F)(F)F)cc3Cl)C[C@H]4C)CC2)c1O [Example 2D, (7R,9S)—N-(2-chloro-4-(trifluoromethyl)phenyl)-6-(4-(5-hydroxy-6-methylpyrimidine-4-carbonyl)piperazin-1-yl)-7-methyl-2-morpholino-5-oxo-5,7,8,9-tetrahydropyrrolo[1,2-c][1,2,4]triazolo[1,5-a]pyrimidine-9-carboxamide] | > 10 | > 10 | 24

Other lines, results leading:

Row | GI50 [1] [µM] | GI50 [2] [µM] | IC50 [3] [µM] | SMILES
4 | 0.04 | > 10 | 0.03 | Cc1cc(F)c(O)c(C(=O)N2CCN(c3c4n(c5nc(N6CCOCC6)nn5c3=O)[C@@H](C(=O)Nc3ccc(C(F)(F)F)cc3Cl)C[C@H]4C)CC2)n1 [Example 3A, (7R,9R)—N-(2-chloro-4-(trifluoromethyl)phenyl)-6-(4-(4-fluoro-3-hydroxy-6-methylpicolinoyl)piperazin-1-yl)-7-methyl-2-morpholino-5-oxo-5,7,8,9-tetrahydropyrrolo[1,2-c][1,2,4]triazolo[1,5-a]pyrimidine-9-carboxamide]
5 | > 10 | > 10 | 6 | Cc1cc(F)c(O)c(C(=O)N2CCN(c3c4n(c5nc(N6CCOCC6)nn5c3=O)[C@H](C(=O)Nc3ccc(C(F)(F)F)cc3Cl)C[C@@H]4C)CC2)n1 [Example 3B, (7S,9S)—N-(2-chloro-4-(trifluoromethyl)phenyl)-6-(4-(4-fluoro-3-hydroxy-6-methylpicolinoyl)piperazin-1-yl)-7-methyl-2-morpholino-5-oxo-5,7,8,9-tetrahydropyrrolo[1,2-c][1,2,4]triazolo[1,5-a]pyrimidine-9-carboxamide]
6 | 0.1 | > 10 | 0.09 | Cc1ncnc(C(=O)N2CCN(c3c4n(c5nc(C6=CCOCC6)nn5c3=O)[C@@H](C(=O)Nc3ccc(C(F)(F)F)nc3Cl)C[C@H]4C)CC2)c1O [Example 4A, (7R,9R)—N-(2-chloro-6-(trifluoromethyl)pyridin-3-yl)-2-(3,6-dihydro-2H-pyran-4-yl)-6-(4-(5-hydroxy-6-methylpyrimidine-4-carbonyl)piperazin-1-yl)-7-methyl-5-oxo-5,7,8,9-tetrahydropyrrolo[1,2-c][1,2,4]triazolo[1,5-a]pyrimidine-9-carboxamide]
7 | 6 | > 10 | 9 | Cc1ncnc(C(=O)N2CCN(c3c4n(c5nc(C6=CCOCC6)nn5c3=O)[C@H](C(=O)Nc3ccc(C(F)(F)F)nc3Cl)C[C@@H]4C)CC2)c1O [Example 4B, (7S,9S)—N-(2-chloro-6-(trifluoromethyl)pyridin-3-yl)-2-(3,6-dihydro-2H-pyran-4-yl)-6-(4-(5-hydroxy-6-methylpyrimidine-4-carbonyl)piperazin-1-yl)-7-methyl-5-oxo-5,7,8,9-tetrahydropyrrolo[1,2-c][1,2,4]triazolo[1,5-a]pyrimidine-9-carboxamide]
8 | 0.03 | > 10 | 0.02 | C[C@@H]1C[C@H](C(=O)Nc2ccc(C(F)(F)F)cc2Cl)n2c1c(N1CCN(C(=O)c3ncc4c(c3O)OCC4)CC1)c(=O)n1nc(C3=CCOCC3)nc21 [Example 5A, (7R,9R)—N-(2-chloro-4-(trifluoromethyl)phenyl)-2-(3,6-dihydro-2H-pyran-4-yl)-6-(4-(7-hydroxy-2,3-dihydrofuro[3,2-c]pyridine-6-carbonyl)piperazin-1-yl)-7-methyl-5-oxo-5,7,8,9-tetrahydropyrrolo[1,2-c][1,2,4]triazolo[1,5-a]pyrimidine-9-carboxamide]
